{"source": "patent US5138101A", "about": "“Recovery of high-boiling aldehydes from rhodium-catalyzed hydroformylation processes” (Eastman Kodak Company, priority 1991, dated 1992)", "key": {"[1]": {"conditions": "cited from earlier work"}, "[2]": {"assay": "Rhodium concentration in the extraction solution phase after extraction, with and without sodium carboxylate salt", "type": "physicochemical", "conditions": "for Rh Conc.: extraction solution phase", "method": "Each experiment employed an extraction temperature of 50° C., an agitation period of 30 minutes and a phase separation period of 5 minutes followed by sampling of the extraction solution phase. One mL aliquots of the lower, extraction solution phase was sampled for Rh analysis.\nThe results of these experiments are shown in Table IV wherein Na Conc. and Rh Conc. are the sodium [Na] and rhodium [Rh] concentrations in mg/L in the extraction solution phase. Also set forth in Table IV are the partition coefficients obtained for the C9-enal isomers, C10-dial isomers and the p diisopropylbenzene hydroformylation solvent (H.S.) in each example.\n[…] […] The extractions were carried out at 50° C. using 62 mL of each hydroformylation product solution and 50 mL of an extraction mixture consisting of a 3:1 volume ratio of methanol and water.\nEach extraction employed an agitation period of 30 minutes and a phase separation period of 5 minutes followed by sampling of the extraction solution phase. One mL aliquots of the lower, extraction solution phase was sampled for Rh analysis. […]"}}, "note": "Read-outs that look alike come from different tables or passages of the source.", "data": [{"smiles": "[Rh]", "note": "[Rh, rhodium]", "values": [{"measurement": "Rhodium extracted into the aqueous phase", "setting": "[1]; 4-hydroxybutyraldehyde 38 percent by weight, U.S. Pat. No. 4,678,857", "result": "5 mg of rhodium per liter"}, {"measurement": "Rhodium extracted into the aqueous phase", "setting": "[1]; aqueous 2-N,N-dimethylaminoethanol, U.S. Pat. No. 4,292,196", "result": 70, "unit": "%"}, {"measurement": "Rh Conc. in extraction solution phase", "setting": "[2]; Example 31, 50° C., Na 0", "result": 120, "unit": "mg/L"}, {"measurement": "Rh Conc. in extraction solution phase", "setting": "[2]; Example 32, Na 82 mg/L as 2-ethylhexanoate", "result": 54, "unit": "mg/L"}, {"measurement": "Rh Conc. in extraction solution phase", "setting": "[2]; Example 33, Na 164 mg/L as 2-ethylhexanoate", "result": 37, "unit": "mg/L"}, {"measurement": "Rh Conc. in extraction solution phase", "setting": "[2]; Example 34, Na 327 mg/L as 2-ethylhexanoate", "result": 28, "unit": "mg/L"}, {"measurement": "Rh Conc. in extraction solution phase", "setting": "[2]; Example 35, Na 653 mg/L as 2-ethylhexanoate", "result": 20, "unit": "mg/L"}, {"measurement": "Rh Conc. in extraction solution phase", "setting": "[2]; Example 36, Na 1307 mg/L as 2-ethylhexanoate", "result": 12, "unit": "mg/L"}, {"measurement": "Rh Conc. in extraction solution phase", "setting": "[2]; Example 37, 50° C., Na 0", "result": 56, "unit": "mg/L"}, {"measurement": "Rh Conc. in extraction solution phase", "setting": "[2]; Example 38, Na 82 mg/L as oleate", "result": 6, "unit": "mg/L"}, {"measurement": "Rh Conc. in extraction solution phase", "setting": "[2]; Example 39, Na 164 mg/L as oleate", "result": 5, "unit": "mg/L"}, {"measurement": "Rh Conc. in extraction solution phase", "setting": "[2]; Example 40, Na 327 mg/L as oleate", "result": 4, "unit": "mg/L"}, {"measurement": "Rh Conc. in extraction solution phase", "setting": "[2]; Example 41, Na 653 mg/L as oleate", "result": 4, "unit": "mg/L"}, {"measurement": "Rh Conc. in extraction solution phase", "setting": "[2]; Example 42, Na 1307 mg/L as oleate", "result": 3.6, "unit": "mg/L"}, {"measurement": "Rh Conc. in extraction solution phase", "setting": "[2]; Example 43, 50° C., Na 0", "result": 72, "unit": "mg/L"}, {"measurement": "Rh Conc. in extraction solution phase", "setting": "[2]; Example 44, Na 82 mg/L as n butyrate", "result": 39, "unit": "mg/L"}, {"measurement": "Rh Conc. in extraction solution phase", "setting": "[2]; Example 45, Na 164 mg/L as n butyrate", "result": 32, "unit": "mg/L"}, {"measurement": "Rh Conc. in extraction solution phase", "setting": "[2]; Example 46, Na 327 mg/L as n butyrate", "result": 25, "unit": "mg/L"}, {"measurement": "Rh Conc. in extraction solution phase", "setting": "[2]; Example 47, Na 653 mg/L as n butyrate", "result": 22, "unit": "mg/L"}, {"measurement": "Rh Conc. in extraction solution phase", "setting": "[2]; Example 48, Na 1307 mg/L as n butyrate", "result": 15, "unit": "mg/L"}, {"measurement": "Rh Conc. in extraction solution phase", "setting": "[2]; Example 49, methanol/water 37/27 mL, Na 0", "result": 18.6, "unit": "mg/L"}, {"measurement": "Rh Conc. in extraction solution phase", "setting": "[2]; Example 50, methanol/water 37/27 mL, Na 100 as oleate", "result": 2.6, "unit": "mg/L"}, {"measurement": "Rh Conc. in extraction solution phase", "setting": "[2]; Example 52, Ref. Ex. 1 (BISBI), MeOH:water 3:1, 50° C., Na 0", "result": 120, "unit": "mg/L"}, {"measurement": "Rh Conc. in extraction solution phase", "setting": "[2]; Example 53, Ref. Ex. 1 (BISBI), Na 82 mg/L", "result": 54, "unit": "mg/L"}, {"measurement": "Rh Conc. in extraction solution phase", "setting": "[2]; Example 54, Ref. Ex. 1 (BISBI), Na 164 mg/L", "result": 37, "unit": "mg/L"}, {"measurement": "Rh Conc. in extraction solution phase", "setting": "[2]; Example 55, Ref. Ex. 1 (BISBI), Na 327 mg/L", "result": 28, "unit": "mg/L"}, {"measurement": "Rh Conc. in extraction solution phase", "setting": "[2]; Example 56, Ref. Ex. 11 (TCHP), Na 0", "result": 7.6, "unit": "mg/L"}, {"measurement": "Rh Conc. in extraction solution phase", "setting": "[2]; Example 57, Ref. Ex. 11 (TCHP), Na 82 mg/L", "result": 5.2, "unit": "mg/L"}, {"measurement": "Rh Conc. in extraction solution phase", "setting": "[2]; Example 58, Ref. Ex. 11 (TCHP), Na 164 mg/L", "result": 2.6, "unit": "mg/L"}, {"measurement": "Rh Conc. in extraction solution phase", "setting": "[2]; Example 59, Ref. Ex. 11 (TCHP), Na 327 mg/L", "result": 1.4, "unit": "mg/L"}, {"measurement": "Rh Conc. in extraction solution phase", "setting": "[2]; Example 60, Ref. Ex. 12 (TBP), Na 0", "result": 6.2, "unit": "mg/L"}, {"measurement": "Rh Conc. in extraction solution phase", "setting": "[2]; Example 61, Ref. Ex. 12 (TBP), Na 82 mg/L", "result": 5.4, "unit": "mg/L"}, {"measurement": "Rh Conc. in extraction solution phase", "setting": "[2]; Example 62, Ref. Ex. 12 (TBP), Na 164 mg/L", "result": 5.6, "unit": "mg/L"}, {"measurement": "Rh Conc. in extraction solution phase", "setting": "[2]; Example 63, Ref. Ex. 12 (TBP), Na 327 mg/L", "result": 5.4, "unit": "mg/L"}, {"measurement": "Rh Conc. in extraction solution phase", "setting": "[2]; Example 64, Ref. Ex. 7 (TPP), Na 0", "result": 7.6, "unit": "mg/L"}, {"measurement": "Rh Conc. in extraction solution phase", "setting": "[2]; Example 65, Ref. Ex. 7 (TPP), Na 82 mg/L", "result": 2.0, "unit": "mg/L"}, {"measurement": "Rh Conc. in extraction solution phase", "setting": "[2]; Example 66, Ref. Ex. 7 (TPP), Na 164 mg/L", "result": 2.2, "unit": "mg/L"}, {"measurement": "Rh Conc. in extraction solution phase", "setting": "[2]; Example 67, Ref. Ex. 7 (TPP), Na 327 mg/L", "result": 1.8, "unit": "mg/L"}, {"measurement": "Rh Conc. in extraction solution phase", "setting": "[2]; Example 68, Ref. Ex. 13 (TOP), Na 0", "result": 1.2, "unit": "mg/L"}, {"measurement": "Rh Conc. in extraction solution phase", "setting": "[2]; Example 69, Ref. Ex. 13 (TOP), Na 82 mg/L", "result": 1.0, "unit": "mg/L"}, {"measurement": "Rh Conc. in extraction solution phase", "setting": "[2]; Example 70, Ref. Ex. 13 (TOP), Na 164 mg/L", "result": "< 1", "unit": "mg/L"}, {"measurement": "Rh Conc. in extraction solution phase", "setting": "[2]; Example 71, Ref. Ex. 13 (TOP), Na 327 mg/L", "result": "< 1", "unit": "mg/L"}, {"measurement": "Rh Conc. in extraction solution phase", "setting": "[2]; Example 72, Ref. Ex. 26 (BISBI, TPP), Na 0", "result": 30, "unit": "mg/L"}, {"measurement": "Rh Conc. in extraction solution phase", "setting": "[2]; Example 73, Ref. Ex. 26 (BISBI, TPP), Na 82 mg/L", "result": 10, "unit": "mg/L"}, {"measurement": "Rh Conc. in extraction solution phase", "setting": "[2]; Example 74, Ref. Ex. 26 (BISBI, TPP), Na 164 mg/L", "result": 8.2, "unit": "mg/L"}, {"measurement": "Rh Conc. in extraction solution phase", "setting": "[2]; Example 75, Ref. Ex. 26 (BISBI, TPP), Na 327 mg/L", "result": 6.8, "unit": "mg/L"}, {"measurement": "Rh Conc. in extraction solution phase", "setting": "[2]; Example 76, Ref. Ex. 27 (BISBI, TCHP), Na 0", "result": 10, "unit": "mg/L"}, {"measurement": "Rh Conc. in extraction solution phase", "setting": "[2]; Example 77, Ref. Ex. 27 (BISBI, TCHP), Na 82 mg/L", "result": 1.8, "unit": "mg/L"}, {"measurement": "Rh Conc. in extraction solution phase", "setting": "[2]; Example 78, Ref. Ex. 27 (BISBI, TCHP), Na 164 mg/L", "result": 2.8, "unit": "mg/L"}, {"measurement": "Rh Conc.", "setting": "[2]; Example 79", "result": "< 1 mg [Rh] per liter"}, {"measurement": "Rh Conc.", "setting": "[2]; Example 80", "result": "< 1 mg [Rh] per liter"}, {"measurement": "Rh Conc.", "setting": "[2]; Example 81", "result": "3.0 mg [Rh] per liter"}, {"measurement": "Rh Conc.", "setting": "[2]; Example 82", "result": "< 1 mg [Rh] per liter"}, {"measurement": "Rh Conc.", "setting": "[2]; Example 83", "result": "2.0 mg [Rh] per liter"}, {"measurement": "Rh Conc.", "setting": "[2]; Example 84", "result": "< 1 mg [Rh] per liter"}, {"measurement": "Rh Conc.", "setting": "[2]; Example 85", "result": "< 1 mg [Rh] per liter"}, {"measurement": "Rh Conc.", "setting": "[2]; Example 86", "result": "< 1 mg [Rh] per liter"}, {"measurement": "Rh Conc.", "setting": "[2]; Example 87", "result": "1.2 mg [Rh] per liter"}]}]}
